ChEMBL document CHEMBL5055685, “Discovery of the First Potent IDO1/IDO2 Dual Inhibitors: A Promising Strategy for Cancer Immunotherapy” (J Med Chem, 2021)
Activity calls are given as the source filed them. The rule behind the calls is not given here.

Columns and labels:
[1] = target: Testis-specific serine/threonine-protein kinase 2 (Homo sapiens) (UniProt Q96PF2); assay: Inhibition of TSSK2 (unknown origin) at 1 uM
[2] = target: Tyrosine-protein kinase receptor UFO (Homo sapiens) (UniProt P30530); assay: Inhibition of AXL (unknown origin) at 1 uM
[3] = target: Inhibitor of nuclear factor kappa-B kinase subunit epsilon (Homo sapiens) (UniProt Q14164); assay: Inhibition of IKKepsilon (unknown origin) at 1 uM
[4] = target: CDK6/cyclin D1 (Homo sapiens) (UniProt P24385+Q00534); assay: Inhibition of CDK6/cyclin-D1 (unknown origin) at 1 uM; format: protein-complex assay
[5] = target: Serine/threonine-protein kinase 33 (Homo sapiens) (UniProt Q9BYT3); assay: Inhibition of STK33 (unknown origin) at 1 uM
[6] = target: Serine/threonine-protein kinase D1 (Homo sapiens) (UniProt Q15139); assay: Inhibition of PKCmu (unknown origin) at 1 uM
[7] = tested on: Rattus norvegicus; assay: Toxicity in rat assessed as weight loss at […]; format: organism-based; details: in vivo
[8] = target: Calcium/calmodulin-dependent protein kinase type II subunit gamma (Homo sapiens) (UniProt Q13555); assay: Inhibition of CAMK2G (unknown origin) at 1 uM
[9] = target: Dual specificity mitogen-activated protein kinase kinase 5 (Homo sapiens) (UniProt Q13163); assay: Inhibition of MEK5 (unknown origin) at 1 uM
[10] = target: Casein kinase I isoform epsilon (Homo sapiens) (UniProt P49674); assay: Inhibition of CK1E (unknown origin) at 1 uM
[11] = target: Serine/threonine-protein kinase Nek11 (Homo sapiens) (UniProt Q8NG66); assay: Inhibition of NEK11 (unknown origin) at 1 uM
[12] = target: Mitogen-activated protein kinase 12 (Homo sapiens) (UniProt P53778); assay: Inhibition of p38gamma (unknown origin) at 1 uM
[13] = target: Protein kinase C delta type (Homo sapiens) (UniProt Q05655); assay: Inhibition of PKCdelta (unknown origin)at 1 uM
Protein kinase C delta type (Homo sapiens), sequence (Q05655 whole entry, looked up): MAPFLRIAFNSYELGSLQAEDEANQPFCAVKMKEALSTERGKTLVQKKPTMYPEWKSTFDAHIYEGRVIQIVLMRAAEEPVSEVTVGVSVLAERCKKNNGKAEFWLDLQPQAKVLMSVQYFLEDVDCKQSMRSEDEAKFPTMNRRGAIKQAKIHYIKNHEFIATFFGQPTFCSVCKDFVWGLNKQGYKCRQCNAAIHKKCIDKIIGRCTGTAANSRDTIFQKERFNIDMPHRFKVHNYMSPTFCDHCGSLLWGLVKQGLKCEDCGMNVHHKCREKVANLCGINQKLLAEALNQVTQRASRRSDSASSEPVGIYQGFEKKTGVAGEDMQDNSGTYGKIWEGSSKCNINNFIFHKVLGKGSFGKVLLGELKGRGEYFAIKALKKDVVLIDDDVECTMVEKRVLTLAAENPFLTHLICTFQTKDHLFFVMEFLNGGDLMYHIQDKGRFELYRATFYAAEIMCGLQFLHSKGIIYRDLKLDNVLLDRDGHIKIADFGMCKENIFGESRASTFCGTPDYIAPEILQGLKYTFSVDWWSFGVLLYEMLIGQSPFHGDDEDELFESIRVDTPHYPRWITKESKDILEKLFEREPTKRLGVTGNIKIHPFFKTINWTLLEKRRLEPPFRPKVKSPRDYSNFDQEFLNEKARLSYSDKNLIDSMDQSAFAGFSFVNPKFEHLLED

[14] = target: Mitogen-activated protein kinase kinase kinase 10 (Homo sapiens) (UniProt Q02779); assay: Inhibition of MLK2 (unknown origin) at 1 uM
[15] = target: Calcium/calmodulin-dependent protein kinase type II subunit beta (Homo sapiens) (UniProt Q13554); assay: Inhibition of CAMK2B (unknown origin) at 1 uM
Calcium/calmodulin-dependent protein kinase type II subunit beta (Homo sapiens), sequence (Q13554 whole entry): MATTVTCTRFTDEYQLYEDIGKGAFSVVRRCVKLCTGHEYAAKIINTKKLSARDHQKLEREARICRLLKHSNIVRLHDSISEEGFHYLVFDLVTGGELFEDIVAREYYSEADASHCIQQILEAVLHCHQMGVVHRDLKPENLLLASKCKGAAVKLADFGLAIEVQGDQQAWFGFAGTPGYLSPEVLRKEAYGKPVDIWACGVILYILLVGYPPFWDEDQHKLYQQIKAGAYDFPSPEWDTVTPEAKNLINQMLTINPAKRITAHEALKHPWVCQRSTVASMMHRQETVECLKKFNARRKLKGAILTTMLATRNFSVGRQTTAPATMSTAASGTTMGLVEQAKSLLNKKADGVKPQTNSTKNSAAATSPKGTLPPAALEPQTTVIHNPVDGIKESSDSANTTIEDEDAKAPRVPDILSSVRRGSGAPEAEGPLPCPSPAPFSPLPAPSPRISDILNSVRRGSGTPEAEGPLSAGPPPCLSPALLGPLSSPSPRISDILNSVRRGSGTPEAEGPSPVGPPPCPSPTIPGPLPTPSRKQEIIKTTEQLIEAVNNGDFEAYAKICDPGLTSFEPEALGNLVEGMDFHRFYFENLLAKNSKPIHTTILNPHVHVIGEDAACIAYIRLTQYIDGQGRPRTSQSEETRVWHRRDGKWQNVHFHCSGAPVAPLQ

[16] = target: Tyrosine-protein kinase Fer (Homo sapiens) (UniProt P16591); assay: Inhibition of FER (unknown origin) at 1 uM
Tyrosine-protein kinase Fer (Homo sapiens), sequence (P16591 whole entry, looked up): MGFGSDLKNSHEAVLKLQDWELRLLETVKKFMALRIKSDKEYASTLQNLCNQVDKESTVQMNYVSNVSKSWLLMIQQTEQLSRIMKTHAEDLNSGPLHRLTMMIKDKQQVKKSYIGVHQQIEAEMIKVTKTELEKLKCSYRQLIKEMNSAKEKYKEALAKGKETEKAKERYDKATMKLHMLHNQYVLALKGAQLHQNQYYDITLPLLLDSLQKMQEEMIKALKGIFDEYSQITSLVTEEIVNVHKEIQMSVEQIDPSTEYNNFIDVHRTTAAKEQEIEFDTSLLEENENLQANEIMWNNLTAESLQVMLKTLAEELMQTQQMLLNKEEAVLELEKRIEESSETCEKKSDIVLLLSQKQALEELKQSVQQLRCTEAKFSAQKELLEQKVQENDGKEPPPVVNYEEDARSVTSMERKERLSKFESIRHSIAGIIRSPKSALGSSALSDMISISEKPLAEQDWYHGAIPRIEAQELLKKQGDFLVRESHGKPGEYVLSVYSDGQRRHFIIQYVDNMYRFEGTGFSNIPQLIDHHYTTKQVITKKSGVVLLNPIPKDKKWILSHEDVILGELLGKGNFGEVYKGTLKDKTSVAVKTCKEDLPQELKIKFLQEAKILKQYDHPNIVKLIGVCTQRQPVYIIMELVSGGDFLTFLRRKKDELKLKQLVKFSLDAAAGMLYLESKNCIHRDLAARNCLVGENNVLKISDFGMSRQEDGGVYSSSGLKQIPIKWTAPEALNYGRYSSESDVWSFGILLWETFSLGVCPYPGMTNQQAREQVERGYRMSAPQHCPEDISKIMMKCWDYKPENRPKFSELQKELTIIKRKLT

[17] = target: Activin receptor type-1 (Homo sapiens) (UniProt Q04771); assay: Inhibition of ALK2 (unknown origin) at 1 uM
Activin receptor type-1 (Homo sapiens), sequence (Q04771 whole entry): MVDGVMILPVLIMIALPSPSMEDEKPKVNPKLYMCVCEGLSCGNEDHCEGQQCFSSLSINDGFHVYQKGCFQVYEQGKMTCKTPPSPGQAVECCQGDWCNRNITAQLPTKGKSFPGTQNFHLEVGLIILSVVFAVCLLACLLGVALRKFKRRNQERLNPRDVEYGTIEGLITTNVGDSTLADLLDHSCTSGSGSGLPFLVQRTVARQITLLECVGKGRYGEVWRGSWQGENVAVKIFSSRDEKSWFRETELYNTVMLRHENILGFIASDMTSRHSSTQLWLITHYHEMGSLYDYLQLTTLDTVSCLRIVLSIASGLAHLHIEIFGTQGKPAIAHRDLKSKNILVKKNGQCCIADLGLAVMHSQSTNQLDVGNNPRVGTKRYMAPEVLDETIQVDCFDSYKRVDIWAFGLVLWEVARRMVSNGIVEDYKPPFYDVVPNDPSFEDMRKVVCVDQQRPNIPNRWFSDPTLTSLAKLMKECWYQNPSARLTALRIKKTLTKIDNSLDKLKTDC

[18] = AUC (0 to t) in Sprague-Dawley rat at 5 mg/kg, iv; format: ADME, organism-based; design: dose 5 mg/kg, route iv; details: in vivo
[19] = target: TGF-beta receptor type-1 (Homo sapiens) (UniProt P36897); assay: Inhibition of ALK5 (unknown origin) at 1 uM
[20] = tested on: Mus musculus; assay: In vivo inhibition of TDO in BALB/c mouse xenografted with human HCT-116 cells assessed as suppression of TDO mRNA expression in tumor by quantitative RT-PCR analysis; format: functional, organism-based
[21] = target: Tyrosine-protein kinase Tec (Homo sapiens) (UniProt P42680); assay: Inhibition of TEC (unknown origin) at 1 uM
[22] = target: Dual specificity protein kinase CLK3 (Homo sapiens) (UniProt P49761); assay: Inhibition of CLK3 (unknown origin) at 1 uM
[23] = Metabolic stability in monkey liver microsomes assessed as rate constant; format: ADME, Macaca mulatta, Microsome; details: rhesus monkey
[24] = target: SNF-related serine/threonine-protein kinase (Homo sapiens) (UniProt Q9NRH2); assay: Inhibition of SNRK (unknown origin) at 1 uM
[25] = target: Aurora kinase B (Homo sapiens) (UniProt Q96GD4); assay: Inhibition of Aurora B (unknown origin) at 1 uM
[26] = target: Tyrosine-protein kinase JAK2 (Homo sapiens) (UniProt O60674); assay: Inhibition of JAK2 (unknown origin) at 1 uM
[27] = target: Tau-tubulin kinase 2 (Homo sapiens) (UniProt Q6IQ55); assay: Inhibition of TTBK2 (unknown origin) at 1 uM
[28] = Half life in Sprague-Dawley rat at 50 mg/kg, po; format: ADME, organism-based; details: in vivo
[29] = target: Tyrosine-protein kinase SYK (Homo sapiens) (UniProt P43405); assay: Inhibition of SYK (unknown origin) at 1 uM
[30] = target: Serine/threonine-protein kinase ULK3 (Homo sapiens) (UniProt Q6PHR2); assay: Inhibition of ULK3 (unknown origin) at 1 uM
[31] = target: Serine/threonine-protein kinase PAK 5 (Homo sapiens) (UniProt Q9P286); assay: Inhibition of PAK5 (unknown origin) at 1 uM
[32] = tested on: Mus musculus; assay: In vivo inhibition of IDO1/IDO2 in BALB/c mouse xenografted with human HCT-116 cells assessed as increase in tryptophan level in serum by […]; format: functional, organism-based
[33] = target: Serine/threonine-protein kinase/endoribonuclease IRE2 (Homo sapiens) (UniProt Q76MJ5); assay: Inhibition of ERN2 (unknown origin) at 1 uM
[34] = target: Serine/threonine-protein kinase MRCK gamma (Homo sapiens) (UniProt Q6DT37); assay: Inhibition of DMPK2 (unknown origin) at 1 uM
[35] = target: PAS domain-containing serine/threonine-protein kinase (Homo sapiens) (UniProt Q96RG2); assay: Inhibition of PASK (unknown origin) at 1 uM
[36] = target: Ribosomal protein S6 kinase alpha-2 (Homo sapiens) (UniProt Q15349); assay: Inhibition of RSK3 (unknown origin) at 1 uM
Ribosomal protein S6 kinase alpha-2 (Homo sapiens), sequence (Q15349 whole entry, canonical isoform): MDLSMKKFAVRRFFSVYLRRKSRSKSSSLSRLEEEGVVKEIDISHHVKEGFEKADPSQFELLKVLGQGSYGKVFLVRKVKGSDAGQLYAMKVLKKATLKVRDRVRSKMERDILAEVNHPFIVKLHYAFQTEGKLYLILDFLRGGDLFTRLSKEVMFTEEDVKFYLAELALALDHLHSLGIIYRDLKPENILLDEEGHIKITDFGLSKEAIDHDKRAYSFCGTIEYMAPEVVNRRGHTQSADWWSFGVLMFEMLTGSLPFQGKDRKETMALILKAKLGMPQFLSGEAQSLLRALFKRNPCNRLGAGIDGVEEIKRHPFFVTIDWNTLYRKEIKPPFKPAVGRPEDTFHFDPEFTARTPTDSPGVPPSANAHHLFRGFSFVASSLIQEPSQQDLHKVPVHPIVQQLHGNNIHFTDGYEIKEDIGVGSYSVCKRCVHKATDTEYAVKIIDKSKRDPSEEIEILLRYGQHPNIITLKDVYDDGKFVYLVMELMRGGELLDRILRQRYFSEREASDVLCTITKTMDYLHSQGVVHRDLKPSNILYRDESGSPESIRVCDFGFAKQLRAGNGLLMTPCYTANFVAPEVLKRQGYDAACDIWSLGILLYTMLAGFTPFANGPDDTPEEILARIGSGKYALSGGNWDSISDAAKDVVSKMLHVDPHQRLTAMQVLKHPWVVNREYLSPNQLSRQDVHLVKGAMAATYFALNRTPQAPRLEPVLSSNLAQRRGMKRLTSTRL

[37] = target: Casein kinase I isoform gamma-2 (Homo sapiens) (UniProt P78368); assay: Inhibition of CK1gamma2 (unknown origin) at 1 uM
[38] = target: Calcium/calmodulin-dependent protein kinase type IV (Homo sapiens) (UniProt Q16566); assay: Inhibition of CAMK4 (unknown origin) at 1 uM
[39] = tested on: HCT-116; assay: Antitumor immunity in BALB/c mouse xenografted with human HCT-116 cells assessed as live Treg cells in tumor-draining lymph nodes by propidium iodide staining based flow cytometry analysis (reference value: 70.6 %); format: functional
[40] = target: Tyrosine-protein kinase Fes/Fps (Homo sapiens) (UniProt P07332); assay: Inhibition of FES (unknown origin) at 1 uM
[41] = target: Homeodomain-interacting protein kinase 3 (Homo sapiens) (UniProt Q9H422); assay: Inhibition of HIPK3 (unknown origin) at 1 uM
[42] = target: Serine/threonine-protein kinase VRK2 (Homo sapiens) (UniProt Q86Y07); assay: Inhibition of VRK2 (unknown origin) at 1 uM
[43] = target: Mitogen-activated protein kinase kinase kinase 6 (Homo sapiens) (UniProt O95382); assay: Inhibition of MEKK6 (unknown origin) at 1 uM
[44] = target: Myosin-IIIb (Homo sapiens) (UniProt Q8WXR4); assay: Inhibition of MYO3B (unknown origin) at 1 uM
Myosin-IIIb (Homo sapiens), sequence (Q8WXR4 whole entry): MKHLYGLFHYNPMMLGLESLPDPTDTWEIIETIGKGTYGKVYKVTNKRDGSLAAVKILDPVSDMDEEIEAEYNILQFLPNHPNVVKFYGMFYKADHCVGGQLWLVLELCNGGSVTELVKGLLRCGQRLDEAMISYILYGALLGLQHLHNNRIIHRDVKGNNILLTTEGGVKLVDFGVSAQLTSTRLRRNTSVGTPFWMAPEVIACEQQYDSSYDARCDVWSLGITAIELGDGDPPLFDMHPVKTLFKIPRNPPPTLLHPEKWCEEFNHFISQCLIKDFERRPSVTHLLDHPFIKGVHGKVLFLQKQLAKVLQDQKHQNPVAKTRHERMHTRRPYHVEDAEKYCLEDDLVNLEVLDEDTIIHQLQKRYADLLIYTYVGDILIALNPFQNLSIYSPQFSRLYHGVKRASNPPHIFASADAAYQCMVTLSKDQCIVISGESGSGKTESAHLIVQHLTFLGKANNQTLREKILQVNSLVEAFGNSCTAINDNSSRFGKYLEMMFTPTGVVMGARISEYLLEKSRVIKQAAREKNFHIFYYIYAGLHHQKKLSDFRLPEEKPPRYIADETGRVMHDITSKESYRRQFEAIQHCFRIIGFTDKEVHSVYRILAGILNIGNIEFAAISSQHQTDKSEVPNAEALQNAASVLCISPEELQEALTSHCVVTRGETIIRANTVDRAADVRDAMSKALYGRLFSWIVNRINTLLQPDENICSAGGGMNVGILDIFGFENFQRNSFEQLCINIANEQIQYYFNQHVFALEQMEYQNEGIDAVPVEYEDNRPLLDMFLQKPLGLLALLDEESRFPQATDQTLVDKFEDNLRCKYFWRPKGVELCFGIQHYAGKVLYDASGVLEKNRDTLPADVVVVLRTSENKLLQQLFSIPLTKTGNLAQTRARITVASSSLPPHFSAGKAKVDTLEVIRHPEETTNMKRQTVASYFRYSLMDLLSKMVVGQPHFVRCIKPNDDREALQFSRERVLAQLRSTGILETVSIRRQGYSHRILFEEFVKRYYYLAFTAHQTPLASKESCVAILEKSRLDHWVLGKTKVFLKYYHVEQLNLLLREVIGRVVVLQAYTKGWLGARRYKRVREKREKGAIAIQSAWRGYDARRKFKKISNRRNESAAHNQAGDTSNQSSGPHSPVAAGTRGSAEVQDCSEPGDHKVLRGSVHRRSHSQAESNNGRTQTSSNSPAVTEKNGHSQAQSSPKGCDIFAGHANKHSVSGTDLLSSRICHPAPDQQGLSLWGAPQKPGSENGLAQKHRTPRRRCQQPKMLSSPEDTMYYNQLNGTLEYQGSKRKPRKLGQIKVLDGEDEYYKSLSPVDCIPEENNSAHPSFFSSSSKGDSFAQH

OCCOCc1cn(CCNc2nonc2/C(=N/O)Nc2ccc(F)c(Br)c2)nn1
inhibition [1]: inactive
inhibition [2]: inactive
inhibition [3]: inactive
inhibition [4]: inactive
inhibition [5]: inactive
inhibition [6]: inactive
Activity [7]: Non-Toxic
inhibition [8]: inactive
inhibition [9]: inactive
inhibition [10]: inactive
inhibition [11]: inactive
inhibition [12]: inactive
inhibition [13]: inactive
inhibition [14]: inactive
inhibition [15]: inactive
inhibition [16]: inactive
inhibition [17]: inactive
AUC(0-t) [18]: 3040 ng·h/mL
inhibition [19]: inactive
inhibition [20]: inactive
inhibition [21]: inactive
inhibition [22]: inactive
k el [23]: 0.0003 s⁻¹
inhibition [24]: inactive
inhibition [25]: inactive
inhibition [26]: inactive
inhibition [27]: inactive
half-life [28]: 1.9 h
inhibition [29]: inactive
inhibition [30]: inactive
inhibition [31]: inactive
inhibition [32]: Active
inhibition [33]: inactive
inhibition [34]: inactive
inhibition [35]: inactive
inhibition [36]: inactive
inhibition [37]: inactive
inhibition [38]: inactive
Activity [39]: 88.1%
inhibition [40]: inactive
inhibition [41]: inactive
inhibition [42]: inactive
inhibition [43]: inactive
inhibition [44]: inactive
